From US9980972B2, “Rho kinase inhibitors for use in treating familial amyotrophic lateral sclerosis” (GEORG-AUGUST-UNIVERSITÄT GÖTTINGEN STIFTUNG ÖFFENTLICHEN …, priority 2012, dated 2018)

Experiments:
primary microglia = experiment: Microglial viability, WST-1 metabolic activity; type: cell-based, mouse; details: up to 50 μM Fasudil
Procedure: Microglial viability was assayed as metabolic activity using WST-1 reagent (4-[3-(4-iodophenyl)-2-(4-nitrophenyl)-2H-5-tetrazolio]-1,3-benzene disulfonate), based on the enzymatic cleavage of WST tetrazolium salt to formazan by the succinate-tetrazolium reductase system of the respiratory chain of intact mitochondria. The assay was performed according to the instructions of the manufacturer (Roche Applied Science, Mannheim, Germany). After 3 h of incubation, the resulting color reaction was measured at 450 nm (with 655 nm as the reference wavelength) in a microplate reader (Bio-Rad, Munich, Germany).

[1] = test system: spinal cord motoneurons of SOD1 G93A mice; experiment: ChAT positive motoneurons in lumbar spinal cord sections; type: in vivo, mouse; details: for ChAT cell numbers per lumbar spinal cord section / motoneuron count: time of death; for ChAT cell numbers per lumbar spinal cord section: vehicle 6.1±0.95
Procedure: After deep anaesthesia, mice were transcardially perfused with PBS solution followed by 4% paraformaldehyde. Spinal cords, sciatic nerves and gastrocnemius muscles were removed. Spinal cords and gastrocnemius muscles were then postfixed for 2 h in 4% paraformaldehyde. Thereafter, the tissue was dehydrated in 30% sucrose overnight and kept at -20° C. until further processing. Coronal sections of the lumbar spinal cord (L3-L6) (20 μm) and horizontal sections of the tibial muscle (35 μm) were prepared using a Leica Kryostat and collected on gelatine-coated glass slides. Spinal cord sections selected for immunohistochemical processing were first rehydrated. Then antigen-retrieval was performed for 4 h in TBS at 60° C. for later GFAP or Iba1 labeling and for 30 min in sodium citrate (pH 9.0) at 80° C. for later ChAT labeling. […] The primary antibodies (anti-ChAT 1:100, AB144 P, Millipore; anti-GFAP 1:200, DAKO; anti-Iba1 1:500, WAKO, Osaka, Japan) were applied at 4° C. for one night for GFAP and for three nights for ChAT. The secondary antibodies (Cy3 anti-goat or Cy2/Dylight anti rabbit; both Dianova) were applied on separate sections 1:300 for 1 h at room temperature. […] In order to quantify motoneuron numbers in coronal cryosections from the lumbar spinal (L3-L6) cord first the area of the ventral horn was defined according to the criteria from Kong et al. (Kong and Xu 1998). […] At least five sections per mouse spinal cord that were 100 μm apart over a length of at least 500 μm isolated from the lumbar spinal cord were counted. In the d50 treatment group analyzed at death, a total of 20 mice was counted from the vehicle (3 male, 3 female), Fas30 (3 male, 3 female), Fas100 (3 male, 3 female) and wildtype (1 male, 1 female) group. In the […] treatment group analyzed at death, a total of 20 mice was counted from the vehicle (3 male, 3 female), Fas30 (3 male, 3 female), and Fas100 (3 male, 3 female) and wildtype (1 male, 1 female) group. In the d50 treatment group analyzed at […], a total of 20 mice was counted from the vehicle (3 male, 3 female), Fas30 (3 male, 3 female), Fas100 (3 male, 3 female) and wildtype (1 male, 1 female) group.

[2] = test system: SOD1 G93A mouse model of ALS; experiment: Disease onset by neurological score in SOD1 G93A mice; type: in vivo; details: treated from d50 or from d80, differentiated by gender
Procedure: Neurological Score. Neurological scores were assessed every three days for each mouse from 50 days of age. The neurological score employed a scale of 0 to 4 that had been developed in ALS mouse trials before. Score criteria used to assign each score level were: • 4 Full extension of hind legs away from lateral midline when mouse is suspended by its tail, and mouse can hold this for 2 seconds, suspended 2-3 times. • 3 Collapse or partial collapse of leg extension towards lateral midline (weakness) or trembling of hind legs during tail suspension. • 2 Toes curl under at least twice during walking of 10 cm, or any part of foot is dragging along cage bottom/table. • 1 Rigid paralysis or minimal joint movement, foot not being used for forward motion*. * If score criterion 2 is reached, food pellets are left on bedding and water is additionally placed in a well on the bedding. • 0 Mouse cannot right itself within 30 seconds from either side.
Onset of disease is defined as reaching neurological score 3 (collapse or partial collapse of leg extension towards lateral midline (weakness) or trembling of hind legs during tail suspension).

[3] = test system: SOD1 G93A mouse model of ALS; experiment: Hanging wire test (crude muscular strength), time to failure of 180 s; type: in vivo; details: either treatment groups of both sexes
Excerpt: The hanging wire test evaluates crude grip strength of the upper extremities.
The hanging wire performance evaluating crude muscular strength in the task to reach a total hanging wire time of 180 s was not different in either treatment groups of both sexes (FIG. 6). Wildtype animals always reached the maximum time of 180 s (data not shown).

[4] = test system: neuromuscular junctions of SOD1 G93A mice; experiment: NMJ integrity of gastrocnemius muscle; type: in vivo, mouse; details: Fasudil vs control treated animals
[5] = CSF analysis after sub-occipital cistern magna puncture; type: in vivo, mouse; details: oral via drinking water; data not shown
Procedure: To reach sufficient CSF levels of Fasudil the inventors administered Fasudil (LC Labs, Woburn, USA; product number F-4660) at a low concentration of […] (Fas30) or at a high concentration of 50 mg (Fas100) in 100 ml drinking water. Control groups received the respective amount of isotonic drinking water termed as vehicle (Veh).

[6] = test system: spinal cord microglia of SOD1 G93A mice; experiment: Microglia morphology subclassification in lumbar spinal cord; type: in vivo, mouse
Excerpt: For the evaluation of microglia morphology at least 10 randomly chosen cells per ventral horn were examined with a 63× objective. Cells were classified as “thin ramified”, “stouter ramified” and “rounded” according to a recent morphologic description by Graeber et al. (Graeber, M. B. (2010) Science 330(6005): 783-788). A ramified cell was defined as a cell that has at least 2 processes that are at least twice the size of cell body. Thin ramified cells were defined to have a small diameter of ramifications (<0.5 μm) and a small cell soma diameter (<5 μm). Stoutly ramified cells were defined with thicker ramifications (>0.5 μm) and a larger cell soma diameter (>5 μm).
In order to further characterize the differential microglial behaviour in the treatment groups at d100, we performed a morphologic subclassification of microglial cells, as described above under the heading “Quantitative evaluation of spinal cord motoneurons and astroglia, sciatic nerve axons and NMJ”. […] The latter two morphologic cell types are considered to reflect a state of enhanced microglial activation in comparison to a surveillance type which is characterized by smaller cell bodies and thin ramified processes (exemplary microscopic images are shown in FIG. 21 C).

[7] = test system: mono-cultures of primary motoneurons; experiment: Kainic acid toxicity in motoneuron mono-culture; type: cell-based

Structure (SMILES): O=S(=O)(c1cccc2cnccc12)N1CCCNCC1 [Fasudil, 1-(5-isoquinolinesulfonyl)homopiperazine]
- microglial metabolic activity (WST-1) (primary microglia): no reduction in metabolic activity
- motoneuron numbers differentiated by cell body size ([1]; day 100, female, Fas30 vs transgenic vehicle, trend not significant): more motoneurons in all size groups
- cumulative cell body size per anterior horn section ([1]; day 100, female, Fasudil vs vehicle): defined trend to be larger
- numbers of ChAT positive motoneurons ([1]; day 100, female, presymptomatic Fas30 vs transgenic vehicle): strong trend of elevated numbers of motoneurons
- ChAT cell numbers per lumbar spinal cord section ([1]; female, presymptomatic F100 (high dose)): 7.3±1.00
- ChAT cell numbers per lumbar spinal cord section ([1]; female, presymptomatic Fas30): 8.6±0.36
- motoneuron count ([1]; female, symptomatic treatment groups): did not differ
- motoneuron count ([1]; male, presymptomatic Fas30 or Fas100): did not profit
- motoneuron count ([1]; male, symptomatic Fas30 vs vehicle): higher motoneuron numbers
- onset of disease (neurological score 3) [2]: no statistically significant difference
- hanging wire performance (180 s) [3]: not different
- sciatic nerve axonal pathology and NMJ integrity of gastrocnemius muscle [4]: no significant differences
- blood-brain-barrier crossing (CSF analysis) [5]: readily crossed the blood-brain-barrier
- rounded microglia ([6]; d100, Fasudil 30, vehicle SOD1G93A 0.7±0.2%): 0.5±0.1%
- microglia with stout ramified processes ([6]; d100, Fasudil 30, vehicle SOD1G93A 46.7±6.3%): 70.8±5.3%
- microglia with thin ramifications ([6]; d100, Fasudil 30, vehicle SOD1G93A 52.6±6.3%): 28.7±5.3%
- microglial morphology ([6]; disease end-stage, all treatment groups): no gross alterations
- survival of KA exposed motoneurons [7]: effectively protecting
